Source: paper PMC5218480 (PLoS ONE, 2017)

System: MV-4-11 cells
Experiment: Gene expression microarray analysis (Affymetrix PrimeView) and GSEA
Assay type: cell-based, human
Parameters: RFU PODN (11730768_x_at) / Fold change /veh PODN (11730768_x_at) / RFU LINC00158 (11744669_a_at) / Fold change /veh LINC00158 (11744669_a_at) / RFU DUSP10 (11751237_a_at) / Fold change /veh DUSP10 (11751237_a_at) / RFU ID3 (11757404_x_at) / Fold change /veh ID3 (11757404_x_at) / RFU PLEKHG5 (11737974_s_at) / Fold change /veh PLEKHG5 (11737974_s_at) / RFU LRRC4B (11730491_at) / Fold change /veh LRRC4B (11730491_at) / RFU GIMAP4 (11747438_a_at) / Fold change /veh GIMAP4 (11747438_a_at) / RFU KRT8 (11758183_x_at) / Fold change /veh KRT8 (11758183_x_at) / RFU CNN1 (11734310_a_at) / Fold change /veh CNN1 (11734310_a_at) / RFU VPS37D (11726825_at) / Fold change /veh VPS37D (11726825_at) / RFU C10orf10 (11716522_x_at) / Fold change /veh C10orf10 (11716522_x_at) / RFU KIR2DL2 /// KIR2DL4 /// KIR2DL5A /// KIR2DL5B /// KIR2DS1 /// KIR2DS2 /// KIR2DS3 /// KIR2DS4 /// KIR3DL3 /// KIR3DL3 /// KIR3DS1 (11738374_at) / Fold change /veh KIR2DL2 /// KIR2DL4 /// KIR2DL5A /// KIR2DL5B /// KIR2DS1 /// KIR2DS2 /// KIR2DS3 /// KIR2DS4 /// KIR3DL3 /// KIR3DL3 /// KIR3DS1 (11738374_at) / RFU C1QL1 (11718748_at) / Fold change /veh C1QL1 (11718748_at) / RFU TMPRSS4 (11747572_a_at) / Fold change /veh TMPRSS4 (11747572_a_at) / RFU HAMP (11756126_x_at) / Fold change /veh HAMP (11756126_x_at) / RFU RNFT2 (11725882_a_at) / Fold change /veh RNFT2 (11725882_a_at) / RFU NR4A2 (11747474_a_at) / Fold change /veh NR4A2 (11747474_a_at) / RFU ABCC12 (11746883_a_at) / Fold change /veh ABCC12 (11746883_a_at) / RFU TMEM136 (11760407_x_at) / Fold change /veh TMEM136 (11760407_x_at) / RFU CLDN22 /// WWC2 (11732394_at) / Fold change /veh CLDN22 /// WWC2 (11732394_at) / RFU HLA-DPB1 (11760878_x_at) / Fold change /veh HLA-DPB1 (11760878_x_at) / RFU SPINT1 (11716480_a_at) / Fold change /veh SPINT1 (11716480_a_at) / RFU GAP43 (11754022_s_at) / Fold change /veh GAP43 (11754022_s_at) / RFU A4GNT (11735810_at) / Fold change /veh A4GNT (11735810_at) / RFU PRB3 (11715151_x_at) / Fold change /veh PRB3 (11715151_x_at) / RFU TUBB4B (11761932_at) / Fold change /veh TUBB4B (11761932_at) / RFU CAPN14 (11732068_a_at) / Fold change /veh CAPN14 (11732068_a_at) / RFU TMCC2 (11721928_a_at) / Fold change /veh TMCC2 (11721928_a_at) / RFU IRGQ (11745062_a_at) / Fold change /veh IRGQ (11745062_a_at) / RFU FAM174B (11720279_a_at) / Fold change /veh FAM174B (11720279_a_at) / RFU TMPRSS4 (11748680_a_at) / Fold change /veh TMPRSS4 (11748680_a_at) / RFU FAM212B (11763350_a_at) / Fold change /veh FAM212B (11763350_a_at) / RFU PLEKHG5 (11743358_a_at) / Fold change /veh PLEKHG5 (11743358_a_at) / RFU ZSCAN30 (11745921_a_at) / Fold change /veh ZSCAN30 (11745921_a_at) / RFU CMKLR1 (11741424_a_at) / Fold change /veh CMKLR1 (11741424_a_at) / RFU LOC101060620 /// MAPK8IP1 (11723275_at) / Fold change /veh LOC101060620 /// MAPK8IP1 (11723275_at) / RFU SPTSSB (11747773_x_at) / Fold change /veh SPTSSB (11747773_x_at) / RFU PRSS12 (11739890_at) / Fold change /veh PRSS12 (11739890_at) / RFU BIN1 (11741810_x_at) / Fold change /veh BIN1 (11741810_x_at) / RFU WNT11 (11732464_a_at) / Fold change /veh WNT11 (11732464_a_at) / RFU C10orf10 (11716521_a_at) / Fold change /veh C10orf10 (11716521_a_at) / RFU C5orf56 (11738089_at) / Fold change /veh C5orf56 (11738089_at) / RFU CYB561 (11721691_x_at) / Fold change /veh CYB561 (11721691_x_at) / RFU ANKRD19P (11752326_a_at) / Fold change /veh ANKRD19P (11752326_a_at) / RFU OR2T12 /// OR2T33 /// OR2T8 (11738714_s_at) / Fold change /veh OR2T12 /// OR2T33 /// OR2T8 (11738714_s_at) / RFU VCAN (11748164_a_at) / Fold change /veh VCAN (11748164_a_at) / RFU JSRP1 (11732532_at) / Fold change /veh JSRP1 (11732532_at) / RFU KRTAP10-11 (11738290_x_at) / Fold change /veh KRTAP10-11 (11738290_x_at) / RFU MYO3A (11730013_a_at) / Fold change /veh MYO3A (11730013_a_at) / RFU EBF3 (11725865_a_at) / Fold change /veh EBF3 (11725865_a_at) / RFU CAMK2N1 (11719241_x_at) / Fold change /veh CAMK2N1 (11719241_x_at) / RFU C5orf56 (11738088_a_at) / Fold change /veh C5orf56 (11738088_a_at) / RFU OLFML3 (11715873_a_at) / Fold change /veh OLFML3 (11715873_a_at) / RFU LOC100653217 /// NTM (11731650_a_at) / Fold change /veh LOC100653217 /// NTM (11731650_a_at) / RFU MAPK11 (11762145_a_at) / Fold change /veh MAPK11 (11762145_a_at) / RFU FIZ1 (11724087_x_at) / Fold change /veh FIZ1 (11724087_x_at) / RFU OASL (11726364_x_at) / Fold change /veh OASL (11726364_x_at) / RFU SOX15 (11748057_x_at) / Fold change /veh SOX15 (11748057_x_at) / RFU CD79A (11719716_a_at) / Fold change /veh CD79A (11719716_a_at) / RFU HIST1H1D (11736915_at) / Fold change /veh HIST1H1D (11736915_at) / RFU CASKIN2 (11723855_a_at) / Fold change /veh CASKIN2 (11723855_a_at) / RFU LOC730098 (11760151_x_at) / Fold change /veh LOC730098 (11760151_x_at) / RFU OR4N2 (11742367_at) / Fold change /veh OR4N2 (11742367_at) / RFU PRRT2 (11749266_a_at) / Fold change /veh PRRT2 (11749266_a_at) / RFU SNX32 (11753110_a_at) / Fold change /veh SNX32 (11753110_a_at) / RFU CDHR5 (11726645_a_at) / Fold change /veh CDHR5 (11726645_a_at) / RFU RCAN1 (11760418_a_at) / Fold change /veh RCAN1 (11760418_a_at) / RFU FAM167A (11723789_a_at) / Fold change /veh FAM167A (11723789_a_at) / RFU FAM26E (11764081_at) / Fold change /veh FAM26E (11764081_at) / RFU ISYNA1 (11749810_s_at) / Fold change /veh ISYNA1 (11749810_s_at) / RFU ACY1 (11761880_at) / Fold change /veh ACY1 (11761880_at) / RFU 11764098_at / Fold change /veh 11764098_at / RFU SAMD14 (11745864_x_at) / Fold change /veh SAMD14 (11745864_x_at) / RFU NPB (11741838_a_at) / Fold change /veh NPB (11741838_a_at) / RFU TMPRSS6 (11731388_a_at) / Fold change /veh TMPRSS6 (11731388_a_at) / RFU KRTAP10-2 (11738614_at) / Fold change /veh KRTAP10-2 (11738614_at) / RFU ARHGAP8 /// PRR5-ARHGAP8 (11727945_x_at) / Fold change /veh ARHGAP8 /// PRR5-ARHGAP8 (11727945_x_at) / RFU KRTAP5-7 /// NADSYN1 (11734609_at) / Fold change /veh KRTAP5-7 /// NADSYN1 (11734609_at) / RFU RASL12 (11751679_a_at) / Fold change /veh RASL12 (11751679_a_at) / RFU CDKN2B (11736163_a_at) / Fold change /veh CDKN2B (11736163_a_at) / RFU PRF1 (11729649_at) / Fold change /veh PRF1 (11729649_at) / RFU, ZNF638 /// ZNF638-IT1 / Fold change vs veh, ZNF638 /// ZNF638-IT1 / RFU, PANK3 / Fold change vs veh, PANK3 / RFU, SH3YL1 / Fold change vs veh, SH3YL1 / RFU, ZEB2 / Fold change vs veh, ZEB2 / RFU, NRIP1 / Fold change vs veh, NRIP1 / RFU, PTTG1IP / Fold change vs veh, PTTG1IP / RFU, CAPN2 / Fold change vs veh, CAPN2 / RFU, MED14 / Fold change vs veh, MED14 / RFU, SNORA58 / Fold change vs veh, SNORA58 / RFU, C1orf63 / Fold change vs veh, C1orf63 / RFU, LRRFIP1 / Fold change vs veh, LRRFIP1 / RFU, NDUFAF7 / Fold change vs veh, NDUFAF7 / RFU, SLC12A2 / Fold change vs veh, SLC12A2 / RFU, IBTK / Fold change vs veh, IBTK / RFU, ESF1 / Fold change vs veh, ESF1 / Fold change vs veh, TMEM50B / RFU, TAOK1 / Fold change vs veh, TAOK1 / RFU, ACBD3 / Fold change vs veh, ACBD3 / RFU, TMA16 / Fold change vs veh, TMA16 / RFU, RWDD3 / Fold change vs veh, RWDD3 / RFU, BCAT1 / Fold change vs veh, BCAT1 / RFU, EDEM3 / Fold change vs veh, EDEM3 / RFU, TMEM33 / Fold change vs veh, TMEM33 / RFU, WDR75 / Fold change vs veh, WDR75 / RFU, AHCTF1 / Fold change vs veh, AHCTF1 / RFU, TFRC / Fold change vs veh, TFRC / RFU, ZDHHC17 / Fold change vs veh, ZDHHC17 / RFU, NOM1 / Fold change vs veh, NOM1 / RFU, ARL8B / Fold change vs veh, ARL8B / RFU, ZBTB11 / Fold change vs veh, ZBTB11 / RFU, TAMM41 / Fold change vs veh, TAMM41 / RFU, KIAA1704 /// LOC100996395 / Fold change vs veh, KIAA1704 /// LOC100996395 / RFU, ING1 / Fold change vs veh, ING1 / RFU, TRMT61B / Fold change vs veh, TRMT61B / RFU, FUBP3 / Fold change vs veh, FUBP3 / RFU, TP53 / Fold change vs veh, TP53 / RFU, TNKS2 / Fold change vs veh, TNKS2 / RFU, ZFP14 / Fold change vs veh, ZFP14 / RFU, ACTR2 / Fold change vs veh, ACTR2 / RFU, PPP3R1 / Fold change vs veh, PPP3R1 / RFU, PIK3R1 / Fold change vs veh, PIK3R1 / RFU, HNRNPA1 / Fold change vs veh, HNRNPA1 / RFU, RNF170 / Fold change vs veh, RNF170 / RFU, ZNF28 / Fold change vs veh, ZNF28 / RFU, RNGTT / Fold change vs veh, RNGTT / RFU, OGT / Fold change vs veh, OGT / RFU, BRD1 / Fold change vs veh, BRD1 / RFU, MARS / Fold change vs veh, MARS / RFU, ZNF655 / Fold change vs veh, ZNF655 / RFU, FAHD1 / Fold change vs veh, FAHD1 / RFU, BDP1 / Fold change vs veh, BDP1 / RFU, LRRCC1 / Fold change vs veh, LRRCC1 / RFU, ARID1A / Fold change vs veh, ARID1A / RFU, ZNF146 / Fold change vs veh, ZNF146 / RFU, ZNF330 / Fold change vs veh, ZNF330 / RFU, GPN3 / Fold change vs veh, GPN3 / RFU, C9orf123 / Fold change vs veh, C9orf123 / RFU, N4BP2L2 / Fold change vs veh, N4BP2L2 / RFU, ARFIP1 / Fold change vs veh, ARFIP1 / RFU, FAM179B / Fold change vs veh, FAM179B / RFU, BCL10 / Fold change vs veh, BCL10 / RFU, UHRF1BP1L / Fold change vs veh, UHRF1BP1L / RFU, BET1 / Fold change vs veh, BET1 / RFU, CNOT2 / Fold change vs veh, CNOT2 / RFU, ZNF268 / Fold change vs veh, ZNF268 / Fold change vs veh, ZNF507 / RFU, DGCR2 / Fold change vs veh, DGCR2 / RFU, WDSUB1 / Fold change vs veh, WDSUB1 / Fold change vs veh, HSP90B1 /// MIR3652 / RFU, ADSS / Fold change vs veh, ADSS / RFU, GK / Fold change vs veh, GK / RFU, ZNF148 / Fold change vs veh, ZNF148 / RFU, TAF9 / Fold change vs veh, TAF9 / RFU, SLC1A5 / Fold change vs veh, SLC1A5 / RFU, SLMO2 / Fold change vs veh, SLMO2 / RFU, ABCC4 / Fold change vs veh, ABCC4 / RFU, LOC101060439 /// RAP1B / Fold change vs veh, LOC101060439 /// RAP1B / RFU, RFX7 / Fold change vs veh, RFX7 / RFU, GTPBP10 / Fold change vs veh, GTPBP10 / RFU, CNEP1R1 / Fold change vs veh, CNEP1R1 / RFU, BIVM-ERCC5 /// ERCC5 / Fold change vs veh, BIVM-ERCC5 /// ERCC5 / RFU, ILF3 / Fold change vs veh, ILF3 / RFU 11762660_at / Fold change /veh 11762660_at / RFU VCAN (11757783_s_at) / Fold change /veh VCAN (11757783_s_at) / RFU DDX43 (11728927_at) / Fold change /veh DDX43 (11728927_at) / RFU KRT8 (11758188_x_at) / Fold change /veh KRT8 (11758188_x_at) / RFU NKD1 (11759106_at) / Fold change /veh NKD1 (11759106_at) / RFU SRD5A1 (11742802_a_at) / Fold change /veh SRD5A1 (11742802_a_at) / RFU TPSAB1 /// TPSB2 (11721975_s_at) / Fold change /veh TPSAB1 /// TPSB2 (11721975_s_at) / RFU GSTM3 (11746129_a_at) / Fold change /veh GSTM3 (11746129_a_at) / RFU IL23R (11737362_x_at) / Fold change /veh IL23R (11737362_x_at) / RFU TMEM51 (11727254_a_at) / Fold change /veh TMEM51 (11727254_a_at) / RFU PIWIL2 (11732686_x_at) / Fold change /veh PIWIL2 (11732686_x_at) / RFU ORM1 (11744905_x_at) / Fold change /veh ORM1 (11744905_x_at) / RFU CCDC152 (11743942_at) / Fold change /veh CCDC152 (11743942_at) / RFU ECM1 (11717891_a_at) / Fold change /veh ECM1 (11717891_a_at) / RFU IL23R (11748794_a_at) / Fold change /veh IL23R (11748794_a_at) / RFU TNFAIP8L3 (11732012_x_at) / Fold change /veh TNFAIP8L3 (11732012_x_at) / RFU MBOAT4 (11741988_at) / Fold change /veh MBOAT4 (11741988_at) / RFU 11764193_at / Fold change /veh 11764193_at / RFU TMEM53 (11763286_at) / Fold change /veh TMEM53 (11763286_at) / RFU MAGEB2 (11727129_at) / Fold change /veh MAGEB2 (11727129_at) / RFU TMEM200A (11744735_a_at) / Fold change /veh TMEM200A (11744735_a_at) / RFU CCDC152 (11751479_a_at) / Fold change /veh CCDC152 (11751479_a_at) / RFU FAM211A (11726209_a_at) / Fold change /veh FAM211A (11726209_a_at) / RFU RGS16 (11746705_a_at) / Fold change /veh RGS16 (11746705_a_at) / RFU VCAN (11755009_s_at) / Fold change /veh VCAN (11755009_s_at) / RFU RHOB (11743442_s_at) / Fold change /veh RHOB (11743442_s_at) / RFU RGS16 (11720943_a_at) / Fold change /veh RGS16 (11720943_a_at) / RFU RGS16 (11720944_at) / Fold change /veh RGS16 (11720944_at) / RFU, VPS4B / Fold change vs veh, VPS4B / RFU, CREB1 / Fold change vs veh, CREB1 / RFU, DNAJC13 / Fold change vs veh, DNAJC13 / RFU, GNAQ / Fold change vs veh, GNAQ / RFU, CDK5R1 / Fold change vs veh, CDK5R1 / RFU, ZRANB3 / Fold change vs veh, ZRANB3 / RFU, CUL4A / Fold change vs veh, CUL4A / RFU, CCNY / Fold change vs veh, CCNY / RFU, UFL1 / Fold change vs veh, UFL1 / RFU, COG3 / Fold change vs veh, COG3 / RFU, DIAPH2 / Fold change vs veh, DIAPH2 / RFU, SKA2 / Fold change vs veh, SKA2 / RFU, AFF3 / Fold change vs veh, AFF3 / RFU, LMF1 / Fold change vs veh, LMF1 / RFU, IPO11 / Fold change vs veh, IPO11 / RFU, DFFB / Fold change vs veh, DFFB / RFU, FOXP1 / Fold change vs veh, FOXP1 / RFU, CARD8 / Fold change vs veh, CARD8 / RFU, STRN3 / Fold change vs veh, STRN3 / RFU, ADK / Fold change vs veh, ADK / RFU, RASSF2 / Fold change vs veh, RASSF2 / RFU, WIPF1 / Fold change vs veh, WIPF1 / RFU, LARP1B / Fold change vs veh, LARP1B / RFU, RASA1 / Fold change vs veh, RASA1 / RFU, RB1 / Fold change vs veh, RB1 / RFU, PPFIA1 / Fold change vs veh, PPFIA1 / RFU, MAT2A / Fold change vs veh, MAT2A / RFU, CCT5 / Fold change vs veh, CCT5 / RFU, WDR92 / Fold change vs veh, WDR92 / RFU, CUX1 / Fold change vs veh, CUX1 / RFU, TTC7A / Fold change vs veh, TTC7A / RFU, TMEM135 / Fold change vs veh, TMEM135 / RFU, DEPTOR / Fold change vs veh, DEPTOR / RFU, CPM / Fold change vs veh, CPM / RFU, DNAJB6 / Fold change vs veh, DNAJB6 / RFU, CACNA2D3 / Fold change vs veh, CACNA2D3 / RFU, DTX4 / Fold change vs veh, DTX4 / RFU, TFCP2 / Fold change vs veh, TFCP2 / RFU, GMCL1 /// GMCL1P1 / Fold change vs veh, GMCL1 /// GMCL1P1 / RFU, AEBP2 / Fold change vs veh, AEBP2 / RFU, SNHG1 /// SNORD22 /// SNORD25 /// SNORD26 /// SNORD27 /// SNORD28 /// SNORD29 /// SNORD31 / Fold change vs veh, SNHG1 /// SNORD22 /// SNORD25 /// SNORD26 /// SNORD27 /// SNORD28 /// SNORD29 /// SNORD31 / Fold change (Aza/veh), C12orf56 (ProbeSet 11735607_a_at) / Fold change (ACY-1035/veh), C12orf56 (ProbeSet 11735607_a_at) / Fold change (Aza/veh), FGFR1OP (ProbeSet 11751329_s_at) / Fold change (ACY-1035/veh), FGFR1OP (ProbeSet 11751329_s_at) / Fold change (Aza/veh), VPS36 (ProbeSet 11739960_a_at) / Fold change (ACY-1035/veh), VPS36 (ProbeSet 11739960_a_at) / RFU SYPL1 (11715823_x_at) / Fold change /veh SYPL1 (11715823_x_at) / RFU IGFBP7 (11715501_s_at) / Fold change /veh IGFBP7 (11715501_s_at) / RFU REEP3 (11722064_at) / Fold change /veh REEP3 (11722064_at) / RFU IGLL1 (11728026_x_at) / Fold change /veh IGLL1 (11728026_x_at): dose or concentration left out as unconfirmed
Conditions: MV-4-11 cells, 48 hours

## Nc1ccc(-c2cccs2)cc1NC(=O)c1ccc2c(c1)cc(C1CC1)n2CCN1CCOCC1 [ACY-1035]
  Fold change /veh BIN1 (11741810_x_at): 1.15
